Data: EPA's CvTdb concentration-time database

Key:
[1] = tested on: Rat; assay: concentration in brain after dosing
[2] = tested on: Rat; assay: concentration in brain after dosing; conditions: 12 h; dosed: Perfluorohexane-1-sulphonic acid – potassium salt; 16 mg/kg; oral; Female; Harlan Sprague Dawley
[3] = tested on: Rat; assay: concentration in liver after dosing; conditions: 6 h; dosed: Perfluorohexane-1-sulphonic acid – potassium salt; 16 mg/kg; oral; Female; Harlan Sprague Dawley
[4] = tested on: Rat; assay: concentration in kidney after dosing; conditions: 24 h; dosed: Perfluorohexane-1-sulphonic acid – potassium salt; 16 mg/kg; oral; Female; Harlan Sprague Dawley
[5] = tested on: Rat; assay: concentration in kidney after dosing; conditions: 3 h; dosed: Perfluorohexane-1-sulphonic acid – potassium salt; 16 mg/kg; oral; Female; Harlan Sprague Dawley
[6] = tested on: rat; assay: concentration in blood after dosing; negative times count back from the end of exposure; conditions: inhalation, male
[7] = tested on: Rat; assay: concentration in plasma after dosing; conditions: dosed: Methyleugenol, 37 mg/kg, iv, Female, F344
[8] = tested on: Mouse; assay: concentration in plasma after dosing; conditions: 0.25 h; dosed: 2-Hydroxy-4-methoxybenzophenone; 500 mg/kg; oral; Male; B6C3F1
[9] = tested on: Rat; assay: concentration in plasma after dosing; conditions: 10 min; dosed: 2-Hydroxy-4-methoxybenzophenone; 100 mg/kg; oral; Male; F344
[10] = tested on: Rat; assay: concentration in plasma after dosing; conditions: dosed: 2-Hydroxy-4-methoxybenzophenone, 250 mg/kg, oral, Female, F344
[11] = tested on: Mouse; assay: concentration in plasma after dosing; conditions: 0.25 h; dosed: 2-Hydroxy-4-methoxybenzophenone; 500 mg/kg; oral; Male; B6C3F1; remark: listed apart in the source
[12] = tested on: Mouse; assay: concentration in plasma after dosing; conditions: 3 h; dosed: 2-Hydroxy-4-methoxybenzophenone; 50 mg/kg; iv; Female; B6C3F1
[13] = tested on: Rat; assay: concentration in brain after dosing; conditions: 5 min; dosed: alpha-Thujone; 25 mg/kg; oral; Male; Harlan Sprague Dawley
[14] = tested on: Rat; assay: concentration in brain after dosing; conditions: 3 h; dosed: alpha-Thujone; 50 mg/kg; oral; Female; Harlan Sprague Dawley
[15] = tested on: Rat; assay: concentration in brain after dosing; conditions: 3 h; dosed: alpha-Thujone; 50 mg/kg; oral; Male; Harlan Sprague Dawley
[16] = tested on: Rat; assay: concentration in brain after dosing; conditions: 10 min; dosed: alpha-Thujone; 25 mg/kg; oral; Male; Harlan Sprague Dawley
[17] = tested on: Rat; assay: concentration in plasma after dosing; conditions: 2 min; dosed: alpha-Thujone; 25 mg/kg; oral; Male; Harlan Sprague Dawley
[18] = tested on: Rat; assay: concentration in plasma after dosing; conditions: 12 h; dosed: Primidone; 130 mg/kg; oral; Male; Harlan Sprague Dawley

O=S(=O)([O-])C(F)(F)C(F)(F)C(F)(F)C(F)(F)C(F)(F)C(F)(F)F.[K+] [Perfluorohexane-1-sulphonic acid – potassium salt]
concentration in brain [ng/g], [1], dosed: Perfluorohexane-1-sulphonic acid – potassium salt, 16 mg/kg, oral, Female
Conditions	3 h	6 h	12 h	24 h	48 h	192 h	528 h
F344	1890	1490	2110	1460	–	847	523
Harlan Sprague Dawley	1170	1070	951	731	515	–	–

Conditions	concentration in brain [ng/g]	concentration in kidney [ng/g]	concentration in liver [ng/g]
[2]	1140	–	–
[3]	–	–	48400
[4]	–	22700	–
[5]	–	31500	–

OCC(Cl)(Cl)Cl [trichloroethanol (free)]
[6], dosed: trichloroethylene, 50 ppm, duration: 4 hr, Sprague Dawley
Conditions	concentration in blood [µg/mL]
0.1729 h	1.25
0.1865 h	2.02
0.2651 h	1.14
0.2753 h	0.828
0.3836 h	2.26
0.4311 h	1.34
0.5027 h	1.18
0.594 h	0.829
0.9111 h	1.11
0.9517 h	1.01
1.022 h	1.13
1.11 h	0.898
1.769 h	0.955
1.908 h	1.01
2.006 h	0.889
3.915 h	1.65
3.921 h	0.897
4.003 h	0.757
5.934 h	0.757
5.937 h	0.703
5.949 h	1.38
5.978 h	0.655
7.942 h	1.26
7.97 h	0.667
7.992 h	0.595
9.919 h	0.656
9.986 h	0.538
10.01 h	0.509
10.11 h	1.12
11.91 h	0.627
11.95 h	1.03
11.98 h	0.546
12.02 h	0.481
13.9 h	0.557
13.93 h	0.469
13.94 h	1.04
13.99 h	0.534
15.9 h	0.507
15.93 h	0.893
15.95 h	0.448
17.94 h	0.348
17.96 h	0.35
41 s	0.978
86 s	1.2

[6], dosed: trichloroethylene, 50 ppm, duration: 4 hr, Sprague Dawley, during exposure
Conditions	concentration in blood [µg/mL]
-169 s	1.35
-3.506 h	0.437
-3.433 h	0.315
-3.408 h	0.626
-3.033 h	1.06
-3.009 h	0.547
-3 h	0.486
-2.975 h	0.327
-2.015 h	0.83
-2.001 h	1.56
-1.996 h	0.845
-1.989 h	0.628
-1.021 h	1.08
-1.008 h	1.89
-0.9983 h	0.79
-0.9843 h	0.968
-0.032 h	1.94

C=C(Cl)Cl [1,1-dichloroethylene]
[6], dosed: 1,1-dichloroethylene, duration: 3 hr, Sprague-Dawley
Conditions	concentration in blood [µg/mL]
0.1331 h, 75 ppm	0.162
0.1373 h, 300 ppm	2.12
0.1374 h, 25 ppm	0.0614
0.1383 h, 150 ppm	0.122
0.1969 h, 75 ppm	0.117
0.1973 h, 150 ppm	0.108
0.1979 h, 25 ppm	0.0386
0.2044 h, 300 ppm	1.74
0.2603 h, 150 ppm	0.0929
0.2608 h, 75 ppm	0.0837
0.261 h, 25 ppm	0.0329
0.2757 h, 300 ppm	1.35
0.3322 h, 75 ppm	0.0625
0.3352 h, 300 ppm	1.06
0.3356 h, 25 ppm	0.0292
0.3396 h, 150 ppm	0.068
0.3946 h, 150 ppm	0.0616
0.3984 h, 25 ppm	0.0266
0.3984 h, 300 ppm	0.874
0.3991 h, 75 ppm	0.0549
0.496 h, 25 ppm	0.0254
0.4961 h, 150 ppm	0.06
0.508 h, 300 ppm	0.801
0.5085 h, 75 ppm	0.0508
4 s, 75 ppm	0.34
13 s, 150 ppm	0.473
118 s, 25 ppm	0.126
132 s, 75 ppm	0.312
133 s, 150 ppm	0.291
137 s, 300 ppm	3.09
232 s, 75 ppm	0.275
238 s, 25 ppm	0.0789
238 s, 150 ppm	0.188
253 s, 300 ppm	2.5

[6], dosed: 1,1-dichloroethylene, duration: 3 hr, Sprague-Dawley, during exposure
Conditions	concentration in blood [µg/mL]
-14 s, 25 ppm	0.184
-8 s, 300 ppm	4.15
-2.956 h, 25 ppm	0.0503
-2.956 h, 75 ppm	0.1
-2.954 h, 300 ppm	1.03
-2.951 h, 150 ppm	0.083
-2.903 h, 25 ppm	0.0674
-2.899 h, 75 ppm	0.139
-2.899 h, 150 ppm	0.154
-2.893 h, 300 ppm	1.32
-2.861 h, 150 ppm	0.19
-2.854 h, 300 ppm	1.49
-2.853 h, 75 ppm	0.17
-2.846 h, 25 ppm	0.0927
-2.793 h, 25 ppm	0.128
-2.793 h, 300 ppm	1.68
-2.792 h, 150 ppm	0.271
-2.787 h, 75 ppm	0.188
-2.729 h, 75 ppm	0.212
-2.727 h, 25 ppm	0.143
-2.727 h, 150 ppm	0.302
-2.727 h, 300 ppm	1.84
-2.657 h, 150 ppm	0.325
-2.653 h, 25 ppm	0.149
-2.653 h, 300 ppm	1.92
-2.652 h, 75 ppm	0.253
-2.583 h, 300 ppm	2.08
-2.582 h, 75 ppm	0.263
-2.575 h, 25 ppm	0.143
-2.568 h, 150 ppm	0.371
-2.498 h, 25 ppm	0.155
-2.494 h, 300 ppm	2.2
-2.492 h, 75 ppm	0.283
-2.49 h, 150 ppm	0.408
-2.396 h, 300 ppm	2.25
-2.393 h, 25 ppm	0.162
-2.391 h, 75 ppm	0.301
-2.389 h, 150 ppm	0.421
-2.197 h, 75 ppm	0.333
-2.194 h, 25 ppm	0.162
-2.194 h, 150 ppm	0.424
-2.194 h, 300 ppm	2.41
-1.996 h, 300 ppm	2.6
-1.995 h, 25 ppm	0.166
-1.99 h, 75 ppm	0.335
-1.988 h, 150 ppm	0.461
-1.743 h, 300 ppm	2.76
-1.742 h, 25 ppm	0.171
-1.741 h, 75 ppm	0.34
-1.738 h, 150 ppm	0.453
-1.5 h, 25 ppm	0.176
-1.497 h, 300 ppm	3.05
-1.496 h, 75 ppm	0.346
-1.493 h, 150 ppm	0.463
-1.003 h, 300 ppm	3.38
-1.002 h, 150 ppm	0.45
-0.9974 h, 25 ppm	0.172
-0.9966 h, 75 ppm	0.338
-0.5007 h, 300 ppm	3.85
-0.4991 h, 150 ppm	0.466
-0.4977 h, 75 ppm	0.337
-0.4481 h, 25 ppm	0.182

C=CCc1ccc(OC)c(OC)c1 [Methyleugenol]
[7]
Conditions	concentration in plasma [µg/mL]
3 h	0.158
5 min	28.9

O=C(c1ccccc1)c1ccc(O)cc1O [2,4-Dihydroxybenzophenone]
Conditions	concentration in plasma [µg/mL]
[8]	1.98
[9]	0.091
[11]	2.74
[12]	0.0577

[10]
Conditions	concentration in plasma [µg/mL]
0.25 h	0.359
4 h	0.135

CC(C)[C@]12CC(=O)[C@H](C)[C@H]1C2 [alpha-Thujone]
Conditions	concentration in brain [ng/g]	concentration in plasma [µg/mL]
[13]	62.6	–
[14]	416	–
[15]	652	–
[16]	1080	–
[17]	–	0.018

concentration in brain [ng/g], [1], dosed: alpha-Thujone, oral
Conditions	0.5 h	1.5 h	2 min	3 h	5 min	6 h	10 min	12 h
25 mg/kg, Female, Harlan Sprague Dawley	801	–	77.8	390	–	270	–	12.7
25 mg/kg, Male, Harlan Sprague Dawley	689	299	21	122	414	77.1	689	–
50 mg/kg, Female, F344	–	–	–	–	2010	437	4550	–
50 mg/kg, Female, Harlan Sprague Dawley	1350	966	44.8	517	508	648	1030	48.5
50 mg/kg, Male, F344	–	952	–	–	–	–	6400	–
50 mg/kg, Male, Harlan Sprague Dawley	2470	677	40.6	1130	–	518	6510	31.7

concentration in brain [ng/g], [1], dosed: 76231-76-0, 3.0 mg/kg, iv, F344
Conditions	2 h	2.5 h	3 h	4 h
Female	16.8	11.6	11.6	–
Male	–	–	–	26.3

CCC1(c2ccccc2)C(=O)NCNC1=O [Primidone]
Conditions	concentration in plasma [µg/mL]
[18]	17.8
